Positions of bridges follow the written chain, without caps; N, C: chain ends. Non-standard residues stand in square brackets, D forms with d. Residues, ends and D or L forms follow the SMILES beside them. Phe(4-CH2NHiPr) = CC(C)NCc1ccc(C[C@H](N)C(=O)O)cc1
How the values were obtained:
SRIF receptor = conditions: cited from earlier work
human sst1 receptor = human sst1 receptor (Homo sapiens, UniProt P30872); experiment: Luciferase reporter gene assay in CCL39-sst1-Luci cells; conditions: for Luciferase Assay (agonist/antagonist property): CCL39-sst1-Luci cells, 0.1 nM to 1 μM, 5 h
Sequence of human sst1 receptor (P30872 whole entry): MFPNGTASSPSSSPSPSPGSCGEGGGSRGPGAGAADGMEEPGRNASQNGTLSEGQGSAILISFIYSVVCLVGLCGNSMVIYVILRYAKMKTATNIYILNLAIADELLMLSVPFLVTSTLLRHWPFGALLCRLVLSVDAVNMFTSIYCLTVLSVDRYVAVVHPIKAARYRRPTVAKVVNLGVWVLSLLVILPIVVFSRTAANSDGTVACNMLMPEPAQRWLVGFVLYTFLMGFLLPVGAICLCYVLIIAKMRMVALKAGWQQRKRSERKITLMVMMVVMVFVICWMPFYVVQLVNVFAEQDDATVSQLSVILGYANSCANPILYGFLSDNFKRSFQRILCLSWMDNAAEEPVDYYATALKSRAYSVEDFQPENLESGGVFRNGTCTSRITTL

SMILES | binding affinity to any SRIF receptor (SRIF receptor) | Luciferase Assay (agonist/antagonist property) (human sst1 receptor) | less potent than SRIF or 25 in luciferase reporter gene assay (human sst1 receptor; EC50 comparison)
CC(C)NCc1ccc(C[C@@H]2NC(=O)[C@@H](Cc3c[nH]c4ccccc34)NC(=O)[C@H](Cc3ccccc3)NC(=O)[C@H](Cc3ccccc3)NC(=O)[C@@H](N)CSSC[C@@H](C(=O)O)NC(=O)[C@H](Cc3ccccc3)NC(=O)[C@H]([C@@H](C)O)NC2=O)cc1 [Compound 9, des-AA^1,2,4,5,12,13-[DTrp^8, IAmp^9]-SRIF] (H-CFF[dW][Phe(4-CH2NHiPr)]TFC-OH; disulfide 1-8 (inferred)) | no binding affinity | – | –
CC(C)NCc1ccc(C[C@@H]2NC(=O)[C@@H](N(C)C(=O)c3ccc4ccccc4c3)NC(=O)[C@H](Cc3ccccc3)NC(=O)[C@@H](N)CSSC[C@@H](C(=O)N[C@H](C(N)=O)[C@@H](C)O)NC(=O)[C@H](Cc3ccccc3)NC2=O)cc1 [Compound 23, des-AA^1,2,4-6,10,12,13-[DAgl(NMe,2naphthoyl)^8,IAmp^9]-SRIF-Thr-NH2] | – | agonist | –
CC(C)NCc1ccc(C[C@@H]2NC(=O)[C@@H](N(C)C(=O)c3ccc4ccccc4c3)NC(=O)[C@H](Cc3ccccc3)NC(=O)[C@@H](NC(=O)[C@H](N)Cc3ccc(O)cc3)CSSC[C@@H](C(=O)N[C@H](C(N)=O)[C@@H](C)O)NC(=O)[C@H](Cc3ccccc3)NC2=O)cc1 [Compound 25, des-AA^1,4-6,10,12,13-[DTyr^2,DAgl(NMe,2naphthoyl)^8,IAmp^9]-SRIF-Thr-NH2] | – | potent sst1 agonist | –
CC(C)NCc1ccc(C[C@@H]2NC(=O)[C@@H](N(C)C(=O)c3ccc4ccccc4c3)NC(=O)[C@H](Cc3ccccc3)NC(=O)[C@@H](N)CSSC[C@@H](C(N)=O)NC(=O)[C@H](Cc3ccc(O)cc3)NC2=O)cc1 [Compound 27, des-AA^1,2,4-6,10,12,13-[DAgl(NMe,2naphthoyl)^8,IAmp^9,Tyr^11]-SRIF-NH2] | – | agonist | –
CC(C)NCc1ccc(C[C@@H]2NC(=O)[C@@H](N(C)C(=O)c3ccc4ccccc4c3)NC(=O)[C@H](Cc3ccccc3)NC(=O)[C@H](N)CSSC[C@@H](C(=O)N[C@@H](Cc3ccc4ccccc4c3)C(N)=O)NC(=O)[C@H](Cc3ccccc3)NC2=O)cc1 [Compound 29, des-AA^1,2,4-6,10,12,13-[DCys^3,DAgl(NMe,2naphthoyl)^8,IAmp^9]-SRIF-2Nal-NH2] | – | agonist | –
CC(C)NCc1ccc(C[C@@H]2NC(=O)[C@@H](Cc3c[nH]c4ccccc34)NC(=O)[C@H](Cc3ccccc3)NC(=O)[C@H](Cc3ccccc3)NC(=O)[C@H](CCCCN)NC(=O)[C@@H](NC(=O)[C@@H](N)Cc3ccc(O)cc3)CSSC[C@@H](C(=O)O)NC(=O)[C@H](CO)NC(=O)[C@H]([C@@H](C)O)NC(=O)[C@H](Cc3ccccc3)NC(=O)[C@H]([C@@H](C)O)NC2=O)cc1 [Compound 33, reference compound] (H-YCKFF[dW][Phe(4-CH2NHiPr)]TFTSC-OH; disulfide 2-12 (inferred)) | – | agonist | approximately 100 fold

— article PMC2779710 (Journal of medicinal chemistry, 2009)
